PMC7815092, “The role of posttranslational modifications in generating neo-epitopes that bind to rheumatoid arthritis-associated HLA-DR alleles and promote autoimmune T cell responses” (PLoS ONE, 2021)
Values belong to the compound of their own block, whether it stands above or below them. Where a SMILES comes first, the peptide text is derived from it. Where no end group is shown, it is not given here. [ ]: non-standard residue; d: D form. Cit = NC(=O)NCCC[C@H](N)C(=O)O

Columns and labels:
HLA-DR1 (DRB1*01:01) = molecular target: T1, HLA-DR1 (DRB1*01:01) (Homo sapiens, UniProt P01903+P01911, A100R/D57E/F55L/F60I/F76Y/I96L/L162R/M171V/P40L/Q125E/R42F/V115G/Y59C); assay: Competitive peptide binding assay to soluble HLA-DR1; details: competition with 0.5 nM biotinylated CII(257–274), 10 nM soluble DR1, 18 h at 37° C, time resolved fluorescence; duplicate, representative of 3 experiments
T1 construct: a new stop codon was inserted immediately prior to the transmembrane domain; made in house; host or cells: Drosophila S2 cells, vector pRmHA-3, secreted, purified on an L227 antibody column
Source text: (§1) Soluble DR1 and DR4 were purified from culture supernatants of S2 drosophila cells transfected with DRB1*0101 or DRB1*0401 and DRA1*0101 as described previously. The cytoplasmic and transmembrane portions of these molecules were deleted from the cDNA using PCR, a new stop codon was inserted immediately prior to the transmembrane domain, and the resulting cDNA was cloned into the drosophila expression vector pRmHA-3. S2 cells were transfected with a 10:10:1 ratio of DRB1:DRA1:pUChsNeo using calcium phosphate precipitation. Soluble DR production was induced by 1 mM CuSO4, and 5 days later the culture supernatant was collected and adjusted to 0.05% octyl glucoside (OcG). Soluble DR was purified by passage of the supernatant over an affinity column coupled with the anti-DR antibody L227. The column was washed with 0.05% OcG and 0.15 M NaCl in phosphate buffer (PB), pH 7.5, followed by 0.05% OcG and 0.5M NaCl in PB, pH 7.5. DR was eluted with 100 mM Tris, 0.5M NaCl, pH 11.2, and the fractions were immediately neutralized with acetic acid. Recovered DR protein was concentrated using an EMD Millipore stirred cell with a YM30 disc membrane (Beverly, MA) and quantitated by OD 280 nm absorption and SDS-PAGE prior to use.
(§2) For binding assays, a 10 nM solution of purified DR1 or DR4 was incubated for 18 h at 37° C with CII(257–274) peptide (0.5 nM) that had been labeled at the NH2 terminus with biotin as previously described. Various concentrations of peptides were added as competitors to the CII peptide binding. Bound peptides were separated from free peptides by immobilizing the DR molecules on microtiter plates coated with the monoclonal antibody L227 and subsequent washing. The antibody was adhered to the plate by an overnight incubation of a 10 μg/ml solution at 4° C. Bound biotinylated peptides were detected by incubation with streptavidin-europium followed by a chelating enhancement solution. Time resolved fluorescence was quantitated using a microplate fluorometer (FluoroMark, Bio-Rad, Hercules, CA), and data are expressed as relative fluorescence units measured. The 50% inhibitory concentration values (IC50) values were calculated from the binding curves and graphed as 1/IC50 to indicate affinity relative to the control peptide. Each binding assay was performed in duplicate, and data are representative of 3 experiments.
(§3) Fig 1 Measurement of peptide binding to DRB1*01:01. 10 nM of soluble DR1 was incubated for 18 h at 37° C with 0.5 nM of biotinylated CII(257–274) peptide and various concentrations of WT and Cit-peptides as competitors. Bound peptides were separated from free peptides by immobilizing the DR molecules with an antibody on microtiter plates. Bound biotinylated peptide was detected by incubation with streptavidin-europium. Time resolved fluorescence was quantitated and data are expressed as relative fluorescence units measured. Each binding assay was performed in duplicate, and data are representative of 3 experiments.

HLA-DR4 (DRB1*04:01) = molecular target: T2, HLA-DR4 (DRB1*04:01) (Homo sapiens, UniProt P01903+P01911, A100K/A169T/F76Y/I96L/K127E/L162R/M171V/N62H/P40V/Q125Y/R42H/S133A/S149N/S66Y/V115G/V209L/W38E); assay: Competitive peptide binding assay to soluble HLA-DR4; details: for IC50: competition with 0.5 nM biotinylated CII(257–274), 10 nM soluble DR4, 18 h at 37° C
T2 construct: a new stop codon was inserted immediately prior to the transmembrane domain; made in house; host or cells: Drosophila S2 cells, vector pRmHA-3, secreted, purified on an L227 antibody column
Source text: as §1, §2
as §3, with “Fig 2” for “Fig 1”, “to DRB1*04:01.” for “to DRB1*01:01.”, “soluble DR4” for “soluble DR1”

[1] = test system: lymph node T cells from B6.DR1 mice; assay: Cytokine production by WT or Cit-peptide stimulated T cells (multiplexed bead assay); assay type: cell-based, mouse; parameters: key to Cytokine WT/Cit Ratio, TNFα: “–” values the result of no cytokine detected from the Cit-Ag or both antigens; details: T cells of mice immunized with the immunogen, calculated from Fig 5; for Cytokine WT/Cit Ratio, TNFα: WT over Cit stimulation, “>” = no TNFα produced by Cit-Ag stimulation; for Cytokine WT/Cit Ratio, IFNγ / Cytokine WT/Cit Ratio, IL-6 / Cytokine WT/Cit Ratio, IL-10 / Cytokine WT/Cit Ratio, IL-17A: WT-stimulated over Cit-stimulated, supernatant 3 days
Experimental: Cytokines produced by WT and Cit-peptide stimulated T cells were measured using a multiplexed bead assay (BioRad) and analyzed using a BioRad MagPix. B6.DR1 mice were immunized with WT or Cit-peptide, and 10 days later LN cells were recovered and re-stimulated with the corresponding WT peptide or Cit-peptide. Supernatants were collected 3 days after stimulation and assayed for expression of IFNγ, TNFα, IL-10, IL-17A, and IL-6. Standard curves were used to calculate cytokine concentration. Data are representative of two independent experiments and based on duplicate samples.
Fig 5 Cytokine production by T cells stimulated with WT or Cit-peptides. Supernatants from T cell proliferation assays in Fig 4 were collected 3 days after antigen stimulation and analyzed for the expression of proinflammatory cytokines. Cytokines produced were measured using a multiplexed bead assay and analyzed using a BioRad MagPix. Standard curves were used to calculate cytokine concentration. The cytokines produced by CII immunized T cells stimulated with the immunodominant epitope, CII(257–274), that drives autoimmune arthritis in the B6.DR1 model are shown for comparison (right panels). Data are representative of two independent experiments and based on duplicate samples.

[2] = test system: B6.DR1 (HLA-DRB1*01:01 transgenic) mice; assay: Induction of autoimmune arthritis in HLA-DR1 transgenic mice; assay type: in vivo, mouse
Experimental: Citrullinated CII (Cit-CII) was produced using the method described by Lundberg et al. and Burkhardt et al.. 4 ml of CII at 0.25 mg/ml was dialyzed against citrullination buffer (0.1 M Tris-HCl pH 7.6, 10 mM CaCl2, 5 mM DTT), and 6.7 μl (8.5 μg, 33.4 U) of PAD4 (human recombinant, Cayman Chemical) was used to induce citrullination. Sham Cit-CII was produced using the same procedure without the PAD4 enzyme.
For arthritis induction and T cell proliferation assays, 8 to 10 week old mice were immunized subcutaneously at the base of the tail with 100 μg of peptide or bovine CII emulsified in equal volumes of CFA consisting of 85% heavy paraffin oil (Fisher Scientific), 15% mannide mono-oleate (Sigma), and 4 mg/ml of heat killed mycobacterium (H37Ra, Difco). For arthritis studies, mice were examined 3 times per week starting at day 18 after immunization and the presence of arthritis, number of affected limbs, and the severity were assessed. Severity of disease was evaluated by visual inspection and assigned a score using a scale of 0 to 4 based on the degree of inflammation as described.
Fig 8 Induction of autoimmune arthritis in HLA-DR1 mice with WT CII and Cit-CII. B6.DR1 mice were immunized with native CII or Cit-CII and the incidence (panel A) and severity (panels B, C, and D) of arthritis were monitored. […]

IC50 (HLA-DR1 (DRB1*01:01)): 82.6 nM
IC50 (HLA-DR4 (DRB1*04:01)): > 5000 nM
Compound: CC(C)C[C@H](NC(=O)[C@H](CC(C)C)NC(=O)[C@@H](NC(=O)[C@@H](N)C(C)C)C(C)C)C(=O)N[C@H](C(=O)N[C@@H](C)C(=O)N[C@H](C(=O)N[C@@H](CCC(=O)O)C(=O)NCC(=O)N[C@@H](CCCNC(N)=O)C(=O)N[C@H](C(=O)N[C@@H](CCCNC(=N)N)C(=O)N[C@H](C(=O)N[C@@H](CC(N)=O)C(=O)N[C@@H](CO)C(=O)N[C@@H](C)C(=O)N[C@@H](Cc1ccc(O)cc1)C(=O)N[C@@H](CCC(N)=O)C(=O)N[C@@H](CC(=O)O)C(=O)N[C@@H](CCCCN)C(=O)O)C(C)C)C(C)C)[C@@H](C)O)C(C)C [cit-Agg] (H-VVLLVATEG[Cit]VRVNSAYQDK-OH)

IC50 (HLA-DR1 (DRB1*01:01)): 121 nM
IC50 (HLA-DR4 (DRB1*04:01)): 170 nM
Compound: CSCC[C@H](NC(=O)[C@H](Cc1ccc(O)cc1)NC(=O)[C@H](CCC(N)=O)NC(=O)[C@@H](N)CC(C)C)C(=O)N[C@@H](CCCNC(N)=O)C(=O)N[C@@H](C)C(=O)N[C@@H](CC(=O)O)C(=O)N[C@@H](CCC(N)=O)C(=O)N[C@@H](C)C(=O)N[C@@H](C)C(=O)NCC(=O)NCC(=O)N[C@@H](CC(C)C)C(=O)N[C@@H](CCCNC(=N)N)C(=O)O [cit-CII] (H-LQYM[Cit]ADQAAGGLR-OH)

IC50 (HLA-DR1 (DRB1*01:01)): > 4500 nM
Compound: CC[C@H](C)[C@H](NC(=O)[C@H](CCCNC(N)=O)NC(=O)[C@H](CC(N)=O)NC(=O)[C@@H](NC(=O)[C@H](Cc1ccccc1)NC(=O)[C@H](CC(=O)O)NC(=O)[C@H](CCC(N)=O)NC(=O)[C@@H](N)CC(N)=O)[C@@H](C)O)C(=O)N[C@@H](CC(N)=O)C(=O)N[C@@H](CCCCN)C(=O)N[C@@H](CC(C)C)C(=O)N[C@@H](CCCCN)C(=O)N[C@@H](CC(N)=O)C(=O)N[C@@H](CO)C(=O)O [cit-Fib] (H-NQDFTN[Cit]INKLKNS-OH; N-terminus and C-terminus assumed)
Cytokine WT/Cit Ratio, TNFα [1]: –
Cytokine WT/Cit Ratio, IFNγ [1]: 0.2
Cytokine WT/Cit Ratio, IL-6 [1]: 0.9
Cytokine WT/Cit Ratio, IL-10 [1]: 0.3
Cytokine WT/Cit Ratio, IL-17A [1]: 1.0

IC50 (HLA-DR1 (DRB1*01:01)): 1.1 nM
Compound: CC(C)C[C@H](NC(=O)[C@H](CCCNC(=N)N)NC(=O)[C@@H](NC(=O)[C@H](C)NC(=O)[C@@H](N)CO)C(C)C)C(=O)N[C@@H](CCCNC(N)=O)C(=O)N[C@@H](CO)C(=O)N[C@@H](CO)C(=O)N[C@H](C(=O)N1CCC[C@H]1C(=O)NCC(=O)N[C@H](C(=O)N[C@@H](CCCNC(=N)N)C(=O)O)C(C)C)C(C)C [cit-Vim] (H-SAVRL[Cit]SSVPGVR-OH)

IC50 (HLA-DR1 (DRB1*01:01)): 82.9 nM
IC50 (HLA-DR4 (DRB1*04:01)): 37.4 nM
Compound: LQYMRADQAAGGLR [CII]

IC50 (HLA-DR1 (DRB1*01:01)): > 4500 nM
binding to DR4 (in words) (HLA-DR4 (DRB1*04:01); up to 40,000:1 nM ratio of competitor:indicator peptide): essentially undetectable
Compound: NQDFTNRINKLKNS [Fib]
Cytokine WT/Cit Ratio, TNFα [1]: 1.3
Cytokine WT/Cit Ratio, IFNγ [1]: 2.5
Cytokine WT/Cit Ratio, IL-6 [1]: 1.1
Cytokine WT/Cit Ratio, IL-10 [1]: 1.0
Cytokine WT/Cit Ratio, IL-17A [1]: 1.4

IC50 (HLA-DR1 (DRB1*01:01)): 76.1 nM
Compound: SAVRLRSSVPGVR [Vim]

IC50 (HLA-DR1 (DRB1*01:01)): 110 nM
IC50 (HLA-DR4 (DRB1*04:01)): > 5000 nM
Compound: VVLLVATEGRVRVNSAYQDK [Agg]

Compound: citrullinated CII: native bovine type II collagen protein treated with PAD4 to convert Arg to Cit
induction of autoimmune arthritis ([2]; DR1 Tg mice immunized with 100 μg in CFA): induced autoimmune arthritis
severity of arthritis compared with WT CII ([2]; DR1 Tg mice, incidence, onset and severity score 0 to 4): no evidence that the disease was more severe than immunization with WT CII
